19 compounds from PubChem BioAssay (NCI) can be followed below.

Structures are written as SMILES.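 Grown in 96-well plates, cells were treated for 48 hours with each compound at five concentrations. Insufficient inhibition: endpoint recorded as highest concentration tested. GI50 = concentration required for 50% inhibition of growth. TGI denotes the concentration required for complete inhibition of growth.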

Some test systems named below: NCI-H23 lung; SF-539 CNS; UACC-62 melanoma; ACHN renal; MOLT-4 leukemia; HL-60(TB) leukemia; SR leukemia; HS 578T breast; NCI/ADR-RES ovarian.
Holding throughout (test): growth of human tumour cells (NCI), 48 h

Regarding `S=c1[nH]c2ccc(Br)cc2c(=S)n1-c1ccccc1`, the TGI in the assay with NCI-H23 lung came out at 65.6 µM; with SF-539 CNS, 44.4 µM; in the assay with UACC-62 melanoma, 32.3 µM; in the assay with ACHN renal, 79.3 µM.
As for `CC1S(=O)(=O)OCCOS1(=O)=O`, the TGI in the assay on NCI-H23 lung is greater than 100 µM; in the assay with SF-539 CNS, greater than 100 µM; with MOLT-4 leukemia, greater than 100 µM; in the assay on UACC-62 melanoma, greater than 83.5 µM; in the assay on ACHN renal, greater than 100 µM; in the assay with HL-60(TB) leukemia it was 87.1 µM.
Take `Cc1cc(=O)oc2cc3c(cc12)Oc1ccccc1O3`: the TGI with NCI-H23 lung was greater than 100 µM; in the assay on SF-539 CNS, 56.7 µM; in the assay on MOLT-4 leukemia, greater than 100 µM; in the assay on SR leukemia it was greater than 100 µM; with UACC-62 melanoma, greater than 100 µM; in the assay with ACHN renal, greater than 100 µM. In the assay with HL-60(TB) leukemia, this compound displayed a TGI greater than 10 µM.
As for `CCC12CCCC(=O)N1C(CO)C(c1ccccc1)O2` (stereo not drawn), the TGI with NCI-H23 lung, in the assay with SF-539 CNS, in the assay on SR leukemia, in the assay with UACC-62 melanoma and with ACHN renal was greater than 100 µM throughout.
`CO/N=C(\C)c1ccc(Nc2cc(-c3ccccc3)nc3c(O)cccc23)cc1`: the GI50 in the assay with HS 578T breast is 18.2 µM; in the assay with NCI/ADR-RES ovarian, 14.5 µM; in the assay with NCI-H23 lung it was 14.9 µM; in the assay on SF-539 CNS, 17.6 µM; in the assay with SR leukemia, 5.51 µM; with UACC-62 melanoma it was 14.6 µM. The GI50 in the assay with ACHN renal was 17.8 µM; in the assay on HL-60(TB) leukemia it was 48.4 µM. Moreover, the TGI in the assay with HS 578T breast was 46.1 µM; with NCI/ADR-RES ovarian, 30.8 µM; with NCI-H23 lung it was 30.6 µM; with SF-539 CNS, 32.1 µM; with SR leukemia, 34.7 µM; in the assay with UACC-62 melanoma, 28.8 µM. The values for the TGI in the assay on ACHN renal and in the assay with HL-60(TB) leukemia were 34 µM and greater than 100 µM, respectively.
`O=C(O)c1cc(=O)c2[nH]c3ccccc3c2s1`: the TGI with NCI-H23 lung, in the assay on MOLT-4 leukemia, in the assay on UACC-62 melanoma, in the assay on ACHN renal and in the assay on HL-60(TB) leukemia was greater than 100 µM throughout.
Consider `OCCCCCCOc1ccc(-c2cc(-c3ccccn3)nc(-c3ccccn3)c2)cc1`, for which the TGI in the assay on HS 578T breast is 4.61 µM; in the assay on NCI-H23 lung it was 9.05 µM; with SF-539 CNS, 1.02 µM; in the assay with MOLT-4 leukemia, 2.53 µM; in the assay with UACC-62 melanoma it was 0.933 µM; with ACHN renal, 5.22 µM. This compound showed a TGI with HL-60(TB) leukemia of 0.514 µM.
Consider `CC(=O)n1c2ccccc2c2nc3nc(Oc4ccc(C)cc4)c4ccccc4c3cc21`, for which the TGI in the assay on NCI-H23 lung is 78.7 µM; in the assay with SF-539 CNS, greater than 100 µM; in the assay with MOLT-4 leukemia, greater than 100 µM; in the assay on SR leukemia, greater than 100 µM; with UACC-62 melanoma, greater than 100 µM; in the assay with ACHN renal it was greater than 100 µM.
As to `COc1cccc(C(=O)C2C(=O)N(C)CCc3ccccc32)c1OC` (stereo not drawn), the TGI in the assay on NCI-H23 lung, in the assay with MOLT-4 leukemia, in the assay with UACC-62 melanoma, in the assay with ACHN renal and in the assay with HL-60(TB) leukemia was greater than 100 µM throughout.
Consider `COc1cc(/C=C/C(=O)c2sc(Nc3ccccc3)nc2C)ccc1O`, for which the TGI in the assay on NCI-H23 lung, in the assay on SF-539 CNS, with MOLT-4 leukemia, in the assay with UACC-62 melanoma, in the assay on ACHN renal and with HL-60(TB) leukemia was greater than 100 µM each time.
For `CN(C)CCCN1CCc2c([nH]c3ccccc23)C1c1cccnc1` (stereo not drawn), the TGI in the assay on NCI-H23 lung, with SF-539 CNS, with MOLT-4 leukemia, in the assay on SR leukemia, with UACC-62 melanoma and in the assay on ACHN renal was greater than 100 µM each time. The compound further returned a TGI in the assay on HL-60(TB) leukemia greater than 100 µM.
In the case of `N#CC(C(=O)C(=O)NCCCNC(=O)C(=O)C(C#N)c1ccccc1)c1ccccc1` (stereo not drawn), the TGI with NCI-H23 lung, with SF-539 CNS, with MOLT-4 leukemia, in the assay on SR leukemia, in the assay on UACC-62 melanoma and in the assay with ACHN renal was greater than 100 µM throughout. In addition, the TGI in the assay with HL-60(TB) leukemia is greater than 100 µM.
On to `N[C@H](C(=O)O)[C@H](Cl)CC(=O)O`, for which the TGI in the assay with NCI-H23 lung, in the assay with SF-539 CNS, in the assay on MOLT-4 leukemia, in the assay on UACC-62 melanoma, in the assay with ACHN renal and in the assay on HL-60(TB) leukemia was greater than 100 µM throughout.
As for `COc1nc2nccc-2c2occn12`, the TGI with NCI-H23 lung, in the assay on SF-539 CNS, with MOLT-4 leukemia, in the assay with UACC-62 melanoma and in the assay with ACHN renal was greater than 100 µM each time.
As for `NNC(=O)CCC(=O)NC1C2CC3CC(C2)CC1C3` (stereo not drawn), the TGI with NCI-H23 lung, in the assay with SF-539 CNS, with MOLT-4 leukemia, with UACC-62 melanoma, in the assay with ACHN renal and in the assay with HL-60(TB) leukemia was greater than 100 µM throughout.
In the case of `O=c1cc(-c2ccccc2)c2cc3c(=O)ccoc3cc2o1`, the TGI with NCI-H23 lung, in the assay on SF-539 CNS, with MOLT-4 leukemia, with SR leukemia, in the assay with UACC-62 melanoma and with ACHN renal was greater than 100 µM each time. Further, in the assay with HL-60(TB) leukemia, the TGI is greater than 100 µM.
In the case of `CC(=O)c1cc([N+](=O)[O-])ccc1OCC(=O)O`, the TGI with NCI-H23 lung, in the assay on SF-539 CNS, in the assay with MOLT-4 leukemia, in the assay on UACC-62 melanoma, in the assay with ACHN renal and in the assay with HL-60(TB) leukemia was greater than 100 µM each time.
On to `COc1cc([C@@H]2c3cc4c(cc3[C@@H](NC(=O)c3ccccc3)C3COC(=O)[C@@H]32)OCO4)cc(OC)c1O` (stereo partly drawn), for which the TGI in the assay on NCI-H23 lung stood at 10.7 µM; with SF-539 CNS, 24.8 µM; in the assay with MOLT-4 leukemia, 9.18 µM; with UACC-62 melanoma, 11.6 µM; with ACHN renal, 5.55 µM; in the assay with HL-60(TB) leukemia, 9.44 µM.
Turning to `Cc1ccc(NC(=O)/C(=N\Nc2ccc([N+](=O)[O-])cc2[N+](=O)[O-])C2C(=O)NC(=O)NC2=O)cc1`, the TGI with NCI-H23 lung was greater than 100 µM; in the assay with SF-539 CNS, 90.9 µM; with SR leukemia, greater than 100 µM; with UACC-62 melanoma, 97.6 µM; in the assay on ACHN renal, greater than 100 µM; with HL-60(TB) leukemia, greater than 100 µM.
